These compounds were tested on MGC-803 (assay: Antiproliferative activity against human MGC-803 cells assessed as inhibition of cell growth incubated for 24 to 72 hrs by MTT assay).
Type: functional, cell-based

Q: C=C1CC[C@@H]2[C@](C)(CO)[C@H](O)CC[C@@]2(C)[C@@H]1/C=C/C1=CC(=C/c2ccc(N(C)C)cc2)/NC1=O was tested. Which IC50 did it give?
A: Its IC50 is 18.1 µM.

Q: How did the IC50 turn out when C=C1CC[C@@H]2[C@](C)(CO)[C@H](O)CC[C@@]2(C)[C@@H]1/C=C/C1=CC(=C/c2ccc(F)cc2)/NC1=O was run?
A: The IC50 was > 50 µM.

Q: With C=C1CC[C@@H]2[C@](C)(CO)[C@H](O)CC[C@@]2(C)[C@@H]1/C=C/C1=CC(=C/c2ccc(F)c(F)c2)/NC1=O as the compound, how does the IC50 read?
A: Its IC50 is > 50 µM.

Q: How did the IC50 turn out when C=C1CC[C@@H]2[C@](C)(CO)[C@H](O)CC[C@@]2(C)[C@@H]1/C=C/C1=CC(=C/c2ccc(C(C)(C)C)cc2)/NC1=O was run?
A: Its IC50 is 19.5 µM.

Q: How did the IC50 turn out when C=C1CC[C@@H]2[C@](C)(CO)[C@H](O)CC[C@@]2(C)[C@@H]1C/C=C1/C(=O)OC[C@H]1O [ANDROGRAPHOLIDE] was run?
A: The IC50 was 31.8 µM.

Q: How did the IC50 turn out when C=C1CC[C@@H]2[C@](C)(CO)[C@H](O)CC[C@@]2(C)[C@@H]1/C=C/C(=C/C(=O)Cc1ccc(Cl)cc1)C(=O)N1CCN(C)CC1 was run?
A: The IC50 was > 50 µM.

Q: With C=C1CC[C@@H]2[C@](C)(CO)[C@H](O)CC[C@@]2(C)[C@@H]1/C=C/C1=CC(=C(C)C)NC1=O as the compound, how does the IC50 read?
A: Its IC50 is > 50 µM.

Q: How did the IC50 turn out when C=C1CC[C@@H]2[C@](C)(CO)[C@H](O)CC[C@@]2(C)[C@@H]1/C=C/C1=CC(=C\c2ccccc2)/NC1=O was run?
A: Its IC50 is 17.6 µM.

Q: How did the IC50 turn out when C=C1CC[C@@H]2[C@](C)(CO)[C@H](O)CC[C@@]2(C)[C@@H]1/C=C/C1=CC(=C/c2ccccc2C)/NC1=O was run?
A: The IC50 was 1.76 µM.

Q: With C=C1CC[C@@H]2[C@](C)(CO)[C@H](O)CC[C@@]2(C)[C@@H]1/C=C/C1=CC(=C2CCCCC2)NC1=O as the compound, how does the IC50 read?
A: The IC50 was > 50 µM.

Q: For C=C1CC[C@@H]2[C@](C)(CO)[C@H](O)CC[C@@]2(C)[C@@H]1/C=C/C1=CC(=C/c2ccc(Cl)cc2Cl)/NC1=O, which IC50 is on record?
A: Its IC50 is 8.52 µM.

Q: C=C1CC[C@@H]2[C@](C)(CO)[C@H](O)CC[C@@]2(C)[C@@H]1/C=C/C(=C/C(=O)Cc1ccc(Cl)cc1)C(=O)N1CCN(C(=O)OC(C)(C)C)CC1 was tested. Which IC50 did it give?
A: The IC50 was 15.8 µM.

Q: Which IC50 does the source give for C=C1CC[C@@H]2[C@](C)(CO)[C@H](O)CC[C@@]2(C)[C@@H]1/C=C/C1=CC(=C/c2ccc(Br)cc2)/NC1=O here?
A: Its IC50 is 5.3 µM.

Q: Which IC50 does the source give for C=C1CC[C@@H]2[C@](C)(CO)[C@H](O)CC[C@@]2(C)[C@@H]1/C=C/C1=CC(=C/c2cccc(C)c2)/NC1=O here?
A: The IC50 was 4.56 µM.

Q: With C=C1CC[C@@H]2[C@](C)(CO)[C@H](O)CC[C@@]2(C)[C@@H]1/C=C/C1=CC(=C/c2cccc(Cl)c2)/NC1=O as the compound, how does the IC50 read?
A: Its IC50 is > 50 µM.

Q: C=C1CC[C@@H]2[C@](C)(CO)[C@H](O)CC[C@@]2(C)[C@@H]1/C=C/C(=C/C(=O)Cc1ccc(Cl)cc1)C(=O)N1CCCCC1 was tested. Which IC50 did it give?
A: Its IC50 is > 50 µM.

Q: For C=C1CC[C@@H]2[C@](C)(CO)[C@H](O)CC[C@@]2(C)[C@@H]1/C=C/C1=CC(=C/c2cc(OC)c(OC)c(OC)c2)/NC1=O, which IC50 is on record?
A: The IC50 was 7.27 µM.

Q: Which IC50 does the source give for C=C1CC[C@@H]2[C@](C)(CO)[C@H](O)CC[C@@]2(C)[C@@H]1/C=C/C1=CC(=C/c2ccc3ccccc3c2)/NC1=O here?
A: Its IC50 is 2.43 µM.

Q: How did the IC50 turn out when C=C1CC[C@@H]2[C@](C)(CO)[C@H](O)CC[C@@]2(C)[C@@H]1/C=C/C1=CC(=C/c2cccnc2)/NC1=O was run?
A: Its IC50 is 12.3 µM.

Q: C=C1CC[C@@H]2[C@](C)(CO)[C@H](O)CC[C@@]2(C)[C@@H]1/C=C/C1=CC(=C/c2ccccc2Cl)/NC1=O was tested. Which IC50 did it give?
A: Its IC50 is 1.6 µM.

Q: Which IC50 does the source give for C=C1CC[C@@H]2[C@](C)(CO)[C@H](O)CC[C@@]2(C)[C@@H]1/C=C/C(=C/C(=O)Cc1ccc(Cl)cc1)C(=O)N1CCN(CC)CC1 here?
A: Its IC50 is > 50 µM.

Q: C=C1CC[C@@H]2[C@](C)(CO)[C@H](O)CC[C@@]2(C)[C@@H]1/C=C/C(=C/C(=O)Cc1ccc(Cl)cc1)C(=O)N1CCNCC1 was tested. Which IC50 did it give?
A: Its IC50 is 37.8 µM.

Q: With C=C1CC[C@@H]2[C@](C)(CO)[C@H](O)CC[C@@]2(C)[C@@H]1/C=C/C1=CC(=C/c2ccc([N+](=O)[O-])c(Cl)c2)/NC1=O as the compound, how does the IC50 read?
A: Its IC50 is > 50 µM.

Q: For C=C1CC[C@@H]2[C@](C)(CO)[C@H](O)CC[C@@]2(C)[C@@H]1/C=C/C1=CC(=C\c2ccc(C)cc2)/NC1=O, which IC50 is on record?
A: The IC50 was 14.7 µM.

Q: For C=C1CC[C@@H]2[C@](C)(CO)[C@H](O)CC[C@@]2(C)[C@@H]1/C=C/C1=CC(=C\c2ccc(Cl)cc2)/NC1=O, which IC50 is on record?
A: The IC50 was 19.2 µM.

Q: For C=C1CC[C@@H]2[C@](C)(CO)[C@H](O)CC[C@@]2(C)[C@@H]1/C=C/C1=CC(=C/C2CCCCC2)/NC1=O, which IC50 is on record?
A: Its IC50 is 15.7 µM.

Q: C=C1CC[C@@H]2[C@](C)(CO)[C@H](O)CC[C@@]2(C)[C@@H]1/C=C/C(=C/C(=O)Cc1ccc(Cl)cc1)C(=O)N1CCOCC1 was tested. Which IC50 did it give?
A: Its IC50 is > 50 µM.

Q: C=C1CC[C@@H]2[C@](C)(CO)[C@H](O)CC[C@@]2(C)[C@@H]1/C=C/C(=C/C(=O)Cc1ccc(Cl)cc1)C(=O)N(C)C was tested. Which IC50 did it give?
A: Its IC50 is > 50 µM.

Q: How did the IC50 turn out when C=C1CC[C@@H]2[C@](C)(CO)[C@H](O)CC[C@@]2(C)[C@@H]1/C=C/C(=C/C(=O)Cc1ccc(Cl)cc1)C(=O)N1CCN(CCO)CC1 was run?
A: The IC50 was > 50 µM.

Q: Which IC50 does the source give for C=C1CC[C@@H]2[C@](C)(CO)[C@H](O)CC[C@@]2(C)[C@@H]1/C=C/C1=CC(=C/c2cccc3ccccc23)/NC1=O here?
A: The IC50 was 1.34 µM.

Q: How did the IC50 turn out when C=C1CC[C@@H]2[C@](C)(CO)[C@H](O)CC[C@@]2(C)[C@@H]1/C=C/C(=C/C(=O)Cc1ccc(Cl)cc1)C(=O)N1CCCC1 was run?
A: Its IC50 is > 50 µM.

Q: How did the IC50 turn out when C=C1CC[C@@H]2[C@](C)(CO)[C@H](O)CC[C@@]2(C)[C@@H]1/C=C/C1=CC(=C/c2ccc(Cl)cc2)/NC1=O was run?
A: The IC50 was 6.05 µM.

Q: Which IC50 does the source give for C=C1CC[C@@H]2[C@](C)(CO)[C@H](O)CC[C@@]2(C)[C@@H]1/C=C/C1=CC(=C/c2ccccc2)/NC1=O here?
A: The IC50 was 9.56 µM.

Q: C=C1CC[C@@H]2[C@](C)(CO)[C@H](O)CC[C@@]2(C)[C@@H]1/C=C/C1=CC(=C/c2cccc(C)c2C)/NC1=O was tested. Which IC50 did it give?
A: The IC50 was 14.1 µM.

Source: ChEMBL document CHEMBL6153084, “The development of α, β-unsaturated lactam-based andrographolide derivatives as anti-gastric cancer agents with the ability of inhibiting the ERK/c-Fos/Jun pathway” (Eur J Med Chem, 2025)
